Converted amounts (≈) assume the structure as drawn. The source made the active and inactive calls. The calls are words filed in the database; no cut-off is given here.
Key:
Tetranychus urticae [1] = assay: Acaricidal activity against Tetranychus urticae (two-spotted spider mite) in compound treated snap bean leaves assessed as adult mortality measured after 2 days by leaf disk method; assay type: functional; settings: foliar, 48 h
Tetranychus urticae [2] = assay: Acaricidal activity against Tetranychus urticae (two-spotted spider mite) in compound treated snap bean leaves assessed as egg mortality measured after 2 days by leaf disk method; assay type: functional; settings: foliar, 48 h
Tetranychus urticae [3] = assay: Acaricidal activity against kelthane-resitant strain Tetranychus urticae (two-spotted spider mite) in compound treated snap bean leaves assessed as adult mortality measured after 2 days by leaf disk method; assay type: functional; settings: foliar, 48 h
Tetranychus urticae [4] = assay: Acaricidal activity against kelthane-sensitive strain Tetranychus urticae (two-spotted spider mite) in compound treated snap bean leaves assessed as egg mortality measured after 2 days by leaf disk method; assay type: functional; settings: foliar, 48 h
Tetranychus urticae [5] = assay: Acaricidal activity against kelthane-resitant strain Tetranychus urticae (two-spotted spider mite) in compound treated snap bean leaves assessed as egg mortality measured after 2 days by leaf disk method; assay type: functional; settings: foliar, 48 h
Tetranychus urticae [6] = assay: Acaricidal activity against kelthane-sensitive strain Tetranychus urticae (two-spotted spider mite) in compound treated snap bean leaves assessed as adult mortality measured after 2 days by leaf disk method; assay type: functional; settings: foliar, 48 h
Tetranychus urticae [7] = assay: Ratio of LC50 for kelthane-resitant strain Tetranychus urticae (two-spotted spider mite) to LC50 for kelthane-sensitive strain Tetranychus urticae (two-spotted spider mite) assessed as egg mortality measured after 2 days by leaf disk method; assay type: functional
Tetranychus urticae [8] = assay: Ratio of LC50 for kelthane-resitant strain Tetranychus urticae (two-spotted spider mite) to LC50 for kelthane-sensitive strain Tetranychus urticae assessed as adult mortality measured after 2 days by leaf disk method; assay type: functional
Tetranychus urticae [9] = assay: Acaricidal activity against Tetranychus urticae (two-spotted spider mite) on strawberry plant assessed as average number of adult females mites at 1000 fold dilutions measured after 16 days (reference value: 100%); assay type: functional
Tetranychus urticae [10] = assay: Acaricidal activity against Tetranychus urticae (two-spotted spider mite) on strawberry plant assessed as average number of adult females mites at 1000 fold dilutions measured after 8 days (reference value: 100%); assay type: functional
Tetranychus urticae [11] = assay: Acaricidal activity against Tetranychus urticae (two-spotted spider mite) on strawberry plant assessed as average number of adult females mites at 1000 fold dilutions measured after 30 days (reference value: 100%); assay type: functional
Tetranychus urticae [12] = assay: Acaricidal activity against Tetranychus urticae (two-spotted spider mite) on strawberry plant assessed as average number of adult females mites at 1000 fold dilutions measured after 23 days (reference value: 100%); assay type: functional
Tetranychus urticae [13] = assay: Acaricidal activity against Tetranychus urticae (two-spotted spider mite) on strawberry plant assessed as average number of adult females mites at 1000 fold dilutions measured after 3 days (reference value: 100%); assay type: functional
Tetranychus urticae [14] = assay: Acaricidal activity against Tetranychus urticae (two-spotted spider mite) on strawberry plant assessed as average number of adult females mites at 800 fold dilutions measured after 8 days (reference value: 100%); assay type: functional
Tetranychus urticae [15] = assay: Acaricidal activity against Tetranychus urticae (two-spotted spider mite) on strawberry plant assessed as average number of adult females mites at 800 fold dilutions measured after 3 days (reference value: 100%); assay type: functional
Tetranychus urticae [16] = assay: Acaricidal activity against Tetranychus urticae (two-spotted spider mite) on strawberry plant assessed as average number of adult females mites at 800 fold dilutions measured after 23 days (reference value: 100%); assay type: functional
Tetranychus urticae [17] = assay: Acaricidal activity against Tetranychus urticae (two-spotted spider mite) on strawberry plant assessed as average number of adult females mites at 400 fold dilutions measured after 23 days (reference value: 100%); assay type: functional
Tetranychus urticae [18] = assay: Acaricidal activity against Tetranychus urticae (two-spotted spider mite) on strawberry plant assessed as average number of adult females mites at 400 fold dilutions measured after 16 days (reference value: 100%); assay type: functional
Tetranychus urticae [19] = assay: Acaricidal activity against Tetranychus urticae (two-spotted spider mite) on strawberry plant assessed as average number of adult females mites at 400 fold dilutions measured after 8 days (reference value: 100%); assay type: functional
Panonychus citri = assay: Acaricidal activity against Panonychus citri in compound treated lemon leaf assessed as adult mortality; assay type: functional, organism-based
Tetranychus urticae [20] = assay: Acaricidal activity against Tetranychus urticae (two-spotted spider mite) on strawberry plant assessed as average number of adult females mites at 800 fold dilutions measured after 16 days (reference value: 100%); assay type: functional
Tetranychus urticae [21] = assay: Acaricidal activity against Tetranychus urticae (two-spotted spider mite) on strawberry plant assessed as average number of adult females mites at 800 fold dilutions measured after 30 days (reference value: 100%); assay type: functional
Tetranychus urticae [22] = assay: Acaricidal activity against Tetranychus urticae (two-spotted spider mite) on strawberry plant assessed as average number of adult females mites at 400 fold dilutions measured after 3 days (reference value: 100%); assay type: functional
Tetranychus urticae [23] = assay: Acaricidal activity against Tetranychus urticae (two-spotted spider mite) on strawberry plant assessed as average number of adult females mites at 400 fold dilutions measured after 30 days (reference value: 100%); assay type: functional

| SMILES | LC50 (Tetranychus urticae [1]) [mg/L] | LC50 (Tetranychus urticae [2]) [mg/L] | further results |
| --- | --- | --- | --- |
| Cc1ccc2nc(-c3cc(F)c(F)c(Cl)c3F)sc2c1 | 155 (≈ 494 µM) | 287 (≈ 915 µM) | – |
| Fc1ccc(-c2nc3ccccc3s2)cc1F | < 125 | > 500 | – |
| Fc1cc(-c2nc3cc(Cl)ccc3o2)c(F)c(Cl)c1F | 37 (≈ 116 µM) | 173 (≈ 544 µM) | – |
| Cc1ccc2oc(-c3ccccc3F)nc2c1 | 88 (≈ 387 µM) | > 500 | – |
| Fc1cc(-c2nc3ccccc3s2)c(F)c(F)c1F | 102 (≈ 360 µM) | 205 (≈ 724 µM) | – |
| Fc1cc(-c2nc3ccccc3o2)c(F)c(F)c1F | 151 (≈ 565 µM) | 351 (≈ 1310 µM) | – |
| Cc1ccc2oc(-c3ccc(F)cc3)nc2c1 | > 500 | > 500 | – |
| OC(c1ccc(Cl)cc1)(c1ccc(Cl)cc1)C(Cl)(Cl)Cl [DICOFOL] | – | – | LC50 (Tetranychus urticae [3]): 296 mg/L (≈ 800 µM); LC50 (Tetranychus urticae [4]): 80.7 mg/L (≈ 218 µM); LC50 (Tetranychus urticae [5]): 90.9 mg/L (≈ 245 µM); LC50 (Tetranychus urticae [6]): 15.9 mg/L (≈ 42.9 µM); RatioLC50 (Tetranychus urticae [7]): 1.13; RatioLC50 (Tetranychus urticae [8]): 18.65 |
| Cc1ccc2oc(-c3cccc(F)c3)nc2c1 | 383 (≈ 1690 µM) | > 500 | – |
| Cc1cc(C)c2oc(-c3cc(F)c(F)c(Cl)c3F)nc2c1 | < 31 | > 500 | – |
| Cc1ccc2oc(-c3cc(F)c(F)c(F)c3F)nc2c1 | 19 (≈ 67.6 µM) | > 500 | – |
| c1ccc(-c2nc3ccccc3o2)cc1 [2-PHENYLBENZO[D]OXAZOLE] | > 500 | > 500 | – |
| c1ccc(-c2nc3ccccc3s2)cc1 [2-PHENYLBENZO[D]THIAZOLE] | 211 (≈ 999 µM) | > 500 | – |
| Fc1cc(-c2nc3ccccc3o2)c(F)c(Cl)c1F | 66 (≈ 233 µM) | 257 (≈ 906 µM) | – |
| Cc1ccc2oc(-c3cc(F)c(F)cc3F)nc2c1 | 174 (≈ 661 µM) | 173 (≈ 657 µM) | – |
| CCc1nn(C)c(C(=O)NCc2ccc(C(C)(C)C)cc2)c1Cl [TEBUFENPYRAD] | – | – | Activity (Tetranychus urticae [9]): 5.6%; Activity (Tetranychus urticae [10]): 7.8%; Activity (Tetranychus urticae [11]): 4.5%; Activity (Tetranychus urticae [12]): 13.5%; Activity (Tetranychus urticae [13]): 4.3% |
| Cc1ccc2nc(-c3cc(F)c(F)c(F)c3F)sc2c1 | 75 (≈ 252 µM) | 205 (≈ 690 µM) | – |
| Cc1ccc2oc(-c3ccccc3)nc2c1 | > 500 | > 500 | – |
| Fc1cc(-c2nc3cc(Cl)ccc3o2)c(F)c(F)c1F | 100 (≈ 332 µM) | 202 (≈ 670 µM) | – |
| Fc1cc(-c2nc3ccccc3s2)c(F)c(Cl)c1F | 35 (≈ 117 µM) | 225 (≈ 751 µM) | – |
| Cc1ccc2nc(-c3cc(F)c(F)c(Cl)c3F)oc2c1 | 48 (≈ 161 µM) | > 500 | – |
| Cc1ccc2oc(-c3cc(F)c(F)c(Cl)c3F)nc2c1 | 35 (≈ 118 µM) | 154 (≈ 517 µM) | Activity (Tetranychus urticae [14]): 86.5%; Activity (Tetranychus urticae [15]): 93.7%; Activity (Tetranychus urticae [16]): 51.4%; Activity (Tetranychus urticae [17]): 38.9%; Activity (Tetranychus urticae [18]): 71.1%; LC50 (Tetranychus urticae [3]): 121 mg/L (≈ 406 µM); Activity (Tetranychus urticae [19]): 108.8%; Activity (Panonychus citri): Active; Activity (Tetranychus urticae [20]): 75.3%; Activity (Tetranychus urticae [21]): 65%; LC50 (Tetranychus urticae [4]): 20.4 mg/L (≈ 68.5 µM); LC50 (Tetranychus urticae [5]): 17.1 mg/L (≈ 57.4 µM); LC50 (Tetranychus urticae [6]): 71.6 mg/L (≈ 241 µM); RatioLC50 (Tetranychus urticae [7]): 0.84; RatioLC50 (Tetranychus urticae [8]): 1.69; Activity (Tetranychus urticae [22]): 93.3%; Activity (Tetranychus urticae [23]): 43.9% |
| Fc1cc(-c2nc3ccc(Br)cc3s2)c(F)c(F)c1F | 93 (≈ 257 µM) | 555 (≈ 1530 µM) | – |
| Fc1c(F)c(F)c(-c2nc3ccccc3s2)c(F)c1F [2-(PERFLUOROPHENYL)BENZO[D]THIAZOLE] | 26 (≈ 86.3 µM) | 124 (≈ 412 µM) | – |
